Test system: AGSST (creeping bentgrass)
Assay: Post-emergence herbicidal activity, cool season
Assay type: in vivo, Agrostis stolonifera
Conditions: abraded plants sprayed at 300, 100, 30 and 10 g/ha; about 14 days after treatment
Procedure: (§1) In another set of tests, the post-emergence activity of compounds of this invention was evaluated on the cool season species listed above. The following procedure was used.
(§2) A pre-prepared topsoil mixture (described above) was placed in a pot and compacted to a depth of 1.0 to 1.25 cm from the top of the pot. Seeds of each of several monocotyledonous and dicotyledonous annual plant species were placed on top of the soil. The seeds were covered with a mixture of 50% topsoil and 50% Rediearth™ in sufficient quantity to level-fill the pots. The pots were then placed on a greenhouse bench and subirrigated as needed.
(§3) When plants growing from the seeds had emerged and reached a suitable growth stage for post-emergence treatment, typically 9 to 14 days after planting, above-ground parts of the plants were subjected to a pre-treatment involving abrasion to create greater opportunity for foliar uptake of subsequently applied compounds. Abrasion was performed using garnet 200w particles applied with a Sears Craftsman hand-held sandblaster operated at approximately 850 kPa (50 psig) pressure.
(§4) A known amount of each test compound dissolved or suspended in an appropriate organic solvent was diluted with a 50:50 mix of acetone and water and applied to the plants by spraying with a standard spray nozzle in a spray volume of […] at a spray pressure of 511 kPa (30 psig). Only the compounds of Examples 1, 8-15 and 17-22 were included in post-emergence tests. Application rates for these compounds were 300, 100, 30 and 10 g/ha. Control plants were abraded but not sprayed.
(§5) After treatment the plants were placed in a greenhouse with an 18/13° C. day/night temperature regime and were subsequently watered as needed for growth. Approximately 14 days after treatment, the plants were observed and herbicidal efficacy recorded as percent inhibition by comparison with control plants. GR80 values were assigned for each compound as described above for the pre-emergence tests.

Structure (SMILES)	Post-emergence activity GR80, AGSST
CCN(CC)C(=O)n1cnc(S(=O)(=O)C(F)(F)SCCOC)n1 [Example 13]	[empty]
CCN(CC)C(=O)n1cnc(S(=O)(=O)C(F)(F)SCC(=O)OC)n1 [Example 11]	[empty]
C=CCC(F)(F)S(=O)(=O)c1ncn(C(=O)N(CC)CC)n1 [Example 17, 1-(N,N-diethylcarbamoyl)-3-[(1,1-difluoro-3-butenyl)sulfonyl]-1,2,4-triazole]	300 g/ha

Test system: CIRAR (canada thistle (seedling))
Assay: Pre-emergence herbicidal activity, warm season
Assay type: in vivo, Cirsium arvense
Conditions: GR80 = lowest tested rate (300, 100, 30, 10 g/ha) with 80% or greater inhibition; approx. 14 days after treating; 30/21° C.
Method in brief: (§6)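 GR80 values derive from percent inhibition relative to untreated plants, read roughly 14 days after sowing and pre-emergence soil-surface treatment (compound in 50:50 acetone/water; rates typically 10, 30, 100, 300 g/ha). Warm-season weeds grew at 30/21° C day/night, cool-season ones at 18/13° C; an asterisk marks activity without reaching 80% at the highest rate.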

Structure (SMILES)	Pre-emergence activity (GR80) CIRAR [g/ha]
CCN(CC)C(=O)n1cnc(S(=O)(=O)C(F)(F)SCC(=O)OC)n1 [Example 11]	300

Test system: AEGCY (jointed goatgrass)
Assay: Post-emergence herbicidal activity, cool season
Assay type: in vivo, Aegilops cylindrica
Conditions: abraded plants sprayed at 300, 100, 30 and 10 g/ha; about 14 days after treatment
Procedure: as §1, §2, §3, §4, §5

Structure (SMILES)	Post-emergence activity GR80, AEGCY
CCN(CC)C(=O)n1cnc(S(=O)(=O)C(F)(F)SCCOC)n1 [Example 13]	[empty]
CCN(CC)C(=O)n1cnc(S(=O)(=O)C(F)(F)SCC(=O)OC)n1 [Example 11]	[empty]
C=CCC(F)(F)S(=O)(=O)c1ncn(C(=O)N(CC)CC)n1 [Example 17, 1-(N,N-diethylcarbamoyl)-3-[(1,1-difluoro-3-butenyl)sulfonyl]-1,2,4-triazole]	[empty]

Test system: SETFA (giant foxtail)
Assay: Pre-emergence herbicidal activity, warm season
Assay type: in vivo, Setaria faberi
Conditions: GR80 = lowest tested rate (300, 100, 30, 10 g/ha) with 80% or greater inhibition; approx. 14 days after treating; 30/21° C.
Method in brief: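 Activity is expressed as the rate giving 80% inhibition, with 300, 100, 30 and 10 g/ha typically tested. An asterisk marks activity short of 80% at the top rate. Warm-season grasses were held at 30/21 °C; cool-season blackgrass and wild buckwheat at 18/13 °C; scoring at about 14 days.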

Structure (SMILES)	Pre-emergence activity (GR80) SETFA
CCN(CC)C(=O)n1cnc(S(=O)(=O)C(F)(F)SCCOC)n1 [Example 13]	* (activity observed, at least at highest rate, but <80% inhibition)
C=CCC(F)(F)S(=O)(=O)c1ncn(C(=O)N(CC)CC)n1 [Example 17, 1-(N,N-diethylcarbamoyl)-3-[(1,1-difluoro-3-butenyl)sulfonyl]-1,2,4-triazole]	100 g/ha

Test system: SINAR (wild mustard)
Assay: Pre-plant incorporated (PPI) herbicidal activity, cool season
Assay type: in vivo, Sinapis arvensis
Conditions: Brassica; weed, PPI application, 10 g/ha; read-out: Percent inhibition SINAR
Procedure: (§7) In another set of tests, the pre-plant incorporated (PPI) activity of compounds of this invention was evaluated on the same species as for the pre-emergence tests described above. In the PPI tests the following procedure, designed to simulate PPI application, was used.
(§8) A pre-prepared topsoil mixture (described above) was placed in a pot and compacted to a depth of 1.0 to 1.25 cm from the top of the pot. Seeds of each of several monocotyledonous and dicotyledonous annual plant species were placed on top of the soil. A sufficient quantity of soil to cover the seeds and level fill the pot was weighed into an open container. A known amount of the test compound was dissolved or suspended in an organic solvent and applied by spraying to this cover soil. The cover soil was thoroughly mixed to distribute the test compound throughout the cover soil, and was then applied as a cover layer over the seeds. Untreated soil was used as a cover layer for control pots. After treatment the plants were placed in a greenhouse where they received 0.64 cm of overhead irrigation. All subsequent watering consisted of a light overhead mist and/or subirrigation as needed for germination and growth. Tables 9 and 10 below relate to warm season plant species which were placed after pre-emergence treatment in a greenhouse with a 30/21° C. day/night temperature regime. Tables 11 and 12 below relates to cool season plant species placed after pre-emergence treatment in a greenhouse or growth chamber with an 18/13° C. day/night temperature regime. Only the compounds of Examples 1, 6, 8, 11, 13 and 15-20 were included in PPI tests.
(§9) Approximately 14 days after planting and treating, the plants were observed and herbicidal efficacy recorded as percent inhibition by comparison with untreated plants.

Structure (SMILES)	inhibition at 10 g/ha [%]
C=CCC(F)(F)S(=O)(=O)c1ncn(C(=O)N(CC)CC)n1 [Example 17, 1-(N,N-diethylcarbamoyl)-3-[(1,1-difluoro-3-butenyl)sulfonyl]-1,2,4-triazole]	70

Same assay, conditions: Brassica; weed, PPI application, 30 g/ha; read-out: Percent inhibition SINAR

Structure (SMILES)	inhibition at 30 g/ha [%]
C=CCC(F)(F)S(=O)(=O)c1ncn(C(=O)N(CC)CC)n1 [Example 17, 1-(N,N-diethylcarbamoyl)-3-[(1,1-difluoro-3-butenyl)sulfonyl]-1,2,4-triazole]	70

Same assay, conditions: Brassica; weed, PPI application, 100 g/ha; read-out: Percent inhibition SINAR

Structure (SMILES)	inhibition at 100 g/ha [%]
C=CCC(F)(F)S(=O)(=O)c1ncn(C(=O)N(CC)CC)n1 [Example 17, 1-(N,N-diethylcarbamoyl)-3-[(1,1-difluoro-3-butenyl)sulfonyl]-1,2,4-triazole]	90

Same assay, conditions: Brassica; weed, PPI application, 300 g/ha; read-out: Percent inhibition SINAR

Structure (SMILES)	inhibition at 300 g/ha [%]
C=CCC(F)(F)S(=O)(=O)c1ncn(C(=O)N(CC)CC)n1 [Example 17, 1-(N,N-diethylcarbamoyl)-3-[(1,1-difluoro-3-butenyl)sulfonyl]-1,2,4-triazole]	100

Same assay, conditions: Brassica; weed, PPI application, 900 g/ha; read-out: Percent inhibition SINAR

Structure (SMILES)	inhibition at 900 g/ha [%]
C=CCC(F)(F)S(=O)(=O)c1ncn(C(=O)N(CC)CC)n1 [Example 17, 1-(N,N-diethylcarbamoyl)-3-[(1,1-difluoro-3-butenyl)sulfonyl]-1,2,4-triazole]	100

Same assay, conditions: pre-plant incorporated; lowest tested rate with 80% or greater inhibition; about 14 days

Structure (SMILES)	PPI activity GR80, SINAR
CCN(CC)C(=O)n1cnc(S(=O)(=O)C(F)(F)SCCOC)n1 [Example 13]	[empty]
CCN(CC)C(=O)n1cnc(S(=O)(=O)C(F)(F)SCC(=O)OC)n1 [Example 11]	100 g/ha
C=CCC(F)(F)S(=O)(=O)c1ncn(C(=O)N(CC)CC)n1 [Example 17, 1-(N,N-diethylcarbamoyl)-3-[(1,1-difluoro-3-butenyl)sulfonyl]-1,2,4-triazole]	30 g/ha

Same assay, conditions: weed, PPI application, 10 g/ha

Structure (SMILES)	Percent inhibition SINAR [%]
CCN(CC)C(=O)n1cnc(S(=O)(=O)C(F)(F)SCCOC)n1 [Example 13]	70
CCN(CC)C(=O)n1cnc(S(=O)(=O)C(F)(F)SCC(=O)OC)n1 [Example 11]	0

Same assay, conditions: weed, PPI application, 30 g/ha

Structure (SMILES)	Percent inhibition SINAR [%]
CCN(CC)C(=O)n1cnc(S(=O)(=O)C(F)(F)SCCOC)n1 [Example 13]	100
CCN(CC)C(=O)n1cnc(S(=O)(=O)C(F)(F)SCC(=O)OC)n1 [Example 11]	0

Same assay, conditions: weed, PPI application, 100 g/ha

Structure (SMILES)	Percent inhibition SINAR [%]
CCN(CC)C(=O)n1cnc(S(=O)(=O)C(F)(F)SCCOC)n1 [Example 13]	100
CCN(CC)C(=O)n1cnc(S(=O)(=O)C(F)(F)SCC(=O)OC)n1 [Example 11]	0

Same assay, conditions: weed, PPI application, 300 g/ha

Structure (SMILES)	Percent inhibition SINAR [%]
CCN(CC)C(=O)n1cnc(S(=O)(=O)C(F)(F)SCC(=O)OC)n1 [Example 11]	0

Same assay, conditions: weed, PPI application, 900 g/ha

Structure (SMILES)	Percent inhibition SINAR [%]
CCN(CC)C(=O)n1cnc(S(=O)(=O)C(F)(F)SCCOC)n1 [Example 13]	100
CCN(CC)C(=O)n1cnc(S(=O)(=O)C(F)(F)SCC(=O)OC)n1 [Example 11]	99

Test system: SOLNI (black nightshade)
Assay: Pre-emergence herbicidal activity, warm season
Assay type: in vivo, Solanum nigrum
Conditions: GR80 = lowest tested rate (300, 100, 30, 10 g/ha) with 80% or greater inhibition; approx. 14 days after treating; 30/21° C.
Method in brief: as §6

Structure (SMILES)	Pre-emergence activity (GR80) SOLNI [g/ha]
CCN(CC)C(=O)n1cnc(S(=O)(=O)C(F)(F)SCCOC)n1 [Example 13]	300
CCN(CC)C(=O)n1cnc(S(=O)(=O)C(F)(F)SCC(=O)OC)n1 [Example 11]	300
C=CCC(F)(F)S(=O)(=O)c1ncn(C(=O)N(CC)CC)n1 [Example 17, 1-(N,N-diethylcarbamoyl)-3-[(1,1-difluoro-3-butenyl)sulfonyl]-1,2,4-triazole]	100

Test system: ABUTH (velvetleaf)
Assay: Pre-plant incorporated (PPI) herbicidal activity, warm season
Assay type: in vivo, Abutilon theophrasti
Conditions: Abutilon theophrasti; PPI application, 10 g/ha; read-out: Percent inhibition ABUTH
Procedure: as §7, §8, §9

Structure (SMILES)	inhibition at 10 g/ha [%]
C=CCC(F)(F)S(=O)(=O)c1ncn(C(=O)N(CC)CC)n1 [Example 17, 1-(N,N-diethylcarbamoyl)-3-[(1,1-difluoro-3-butenyl)sulfonyl]-1,2,4-triazole]	0

Same assay, conditions: Abutilon theophrasti; PPI application, 30 g/ha; read-out: Percent inhibition ABUTH

Structure (SMILES)	inhibition at 30 g/ha [%]
C=CCC(F)(F)S(=O)(=O)c1ncn(C(=O)N(CC)CC)n1 [Example 17, 1-(N,N-diethylcarbamoyl)-3-[(1,1-difluoro-3-butenyl)sulfonyl]-1,2,4-triazole]	0

Same assay, conditions: Abutilon theophrasti; PPI application, 100 g/ha; read-out: Percent inhibition ABUTH

Structure (SMILES)	inhibition at 100 g/ha [%]
C=CCC(F)(F)S(=O)(=O)c1ncn(C(=O)N(CC)CC)n1 [Example 17, 1-(N,N-diethylcarbamoyl)-3-[(1,1-difluoro-3-butenyl)sulfonyl]-1,2,4-triazole]	0

Same assay, conditions: Abutilon theophrasti; PPI application, 300 g/ha; read-out: Percent inhibition ABUTH

Structure (SMILES)	inhibition at 300 g/ha [%]
C=CCC(F)(F)S(=O)(=O)c1ncn(C(=O)N(CC)CC)n1 [Example 17, 1-(N,N-diethylcarbamoyl)-3-[(1,1-difluoro-3-butenyl)sulfonyl]-1,2,4-triazole]	40

Same assay, conditions: Abutilon theophrasti; PPI application, 900 g/ha; read-out: Percent inhibition ABUTH

Structure (SMILES)	inhibition at 900 g/ha [%]
C=CCC(F)(F)S(=O)(=O)c1ncn(C(=O)N(CC)CC)n1 [Example 17, 1-(N,N-diethylcarbamoyl)-3-[(1,1-difluoro-3-butenyl)sulfonyl]-1,2,4-triazole]	100

Same assay, conditions: PPI application, 10 g/ha

Structure (SMILES)	Percent inhibition ABUTH [%]
CCN(CC)C(=O)n1cnc(S(=O)(=O)C(F)(F)SCCOC)n1 [Example 13]	0
CCN(CC)C(=O)n1cnc(S(=O)(=O)C(F)(F)SCC(=O)OC)n1 [Example 11]	0

Same assay, conditions: PPI application, 30 g/ha

Structure (SMILES)	Percent inhibition ABUTH [%]
CCN(CC)C(=O)n1cnc(S(=O)(=O)C(F)(F)SCCOC)n1 [Example 13]	0
CCN(CC)C(=O)n1cnc(S(=O)(=O)C(F)(F)SCC(=O)OC)n1 [Example 11]	0

Same assay, conditions: PPI application, 100 g/ha

Structure (SMILES)	Percent inhibition ABUTH [%]
CCN(CC)C(=O)n1cnc(S(=O)(=O)C(F)(F)SCCOC)n1 [Example 13]	0
CCN(CC)C(=O)n1cnc(S(=O)(=O)C(F)(F)SCC(=O)OC)n1 [Example 11]	0

Same assay, conditions: PPI application, 300 g/ha

Structure (SMILES)	Percent inhibition ABUTH [%]
CCN(CC)C(=O)n1cnc(S(=O)(=O)C(F)(F)SCCOC)n1 [Example 13]	20
CCN(CC)C(=O)n1cnc(S(=O)(=O)C(F)(F)SCC(=O)OC)n1 [Example 11]	20

Same assay, conditions: PPI application, 900 g/ha

Structure (SMILES)	Percent inhibition ABUTH [%]
CCN(CC)C(=O)n1cnc(S(=O)(=O)C(F)(F)SCCOC)n1 [Example 13]	85
CCN(CC)C(=O)n1cnc(S(=O)(=O)C(F)(F)SCC(=O)OC)n1 [Example 11]	20

Same assay, conditions: pre-plant incorporated; GR80 = lowest tested rate with 80% or greater inhibition; approx. 14 days after treating; 30/21° C.

Structure (SMILES)	PPI activity (GR80) ABUTH [g/ha]
CCN(CC)C(=O)n1cnc(S(=O)(=O)C(F)(F)SCCOC)n1 [Example 13]	100
CCN(CC)C(=O)n1cnc(S(=O)(=O)C(F)(F)SCC(=O)OC)n1 [Example 11]	300
C=CCC(F)(F)S(=O)(=O)c1ncn(C(=O)N(CC)CC)n1 [Example 17, 1-(N,N-diethylcarbamoyl)-3-[(1,1-difluoro-3-butenyl)sulfonyl]-1,2,4-triazole]	100
